Test results as given in patent US20230026616A1, “PYRIMIDOIMIDAZOLE COMPOUNDS USED AS DNA-PK INHIBITORS” (MEDSHINE DISCOVERY INC., priority 2019, published 2023).
Where two headings read alike, the source gives them in different places. One block for each compound: values may come before it.

Columns and labels:
[1] = Pharmacokinetic evaluation (1): cassette PK in Balb/c male mice, plasma; assay type: in vivo; conditions: for AUC(0-t) / C0 / clearance / half-life / Vd / Cmax / Tmax: male, Balb/c; for AUC(0-t) / C0 / clearance / half-life / Vd / Cmax / Tmax / Tlast: mouse plasma; for Vd: read-out: Vdss; for Tmax: read-out: Tmax; for F: mouse
Description: Test compounds were mixed with 10% dimethyl sulfoxide/50% polyethylene glycol 200/40% water (compounds 1, 4, 10, 17) or 20% N,N-dimethylacetamide/80% water (compound 5), vortexed and sonicated to prepare a nearly clear solution of 0.08 mg/mL (compounds 1, 4, 10, 17) or 0.50 mg/mL (compound 5), then filtered through a microporous membrane for next step. Balb/c male mice of 18 to 20 grams were selected and administered intravenously with the candidate compound solution at a dose of 0.4 (compounds 1, 4, 10, 17) or 1 mg/kg (compound 5). Test compounds were mixed with 10% dimethyl sulfoxide/50% polyethylene glycol 200/40% water (compounds 1, 4, 10, 17) or 20%-hydroxypropyl-β-cyclodextrin (compound 5), vortexed and sonicated to prepare a nearly clear solution of 0.2 mg/mL (compounds 1, 4, 10, 17) or 1 mg/mL (compound 5), then filtered through a microporous membrane for next step. Balb/c male mice of 18 to 20 grams were selected and orally administered with the candidate compound solution at a dose of 2 (compounds 1, 4, 10, 17) or 5 mg/kg (compound 5). Whole blood was collected for a certain period of time, and plasma was prepared, then drug concentration was detected by LC-MS/MS method, and pharmacokinetic parameters were calculated by Phoenix WinNonlin software (Pharsight, USA).
IV: intravenous injection; PO: oral; C0: instantaneous […] concentration after intravenous injection; Cmax: highest plasma concentration after administration; Tmax: time required to reach peak of drug concentration after administration; T1/2: time required for the plasma drug concentration to decrease by half, Vdss: apparent volume of distribution, refers to the proportional constant of the drug dose in vivo and the blood drug concentration when the drug reaches a dynamic equilibrium in vivo. Cl: clearance rate, refers to the […] cleared from the body per unit time; Tlast: time at the last detection point; AUC0-last: area under the drug-time curve, refers to the area covered by the plasma concentration curve and the time axis; F: a measure of the speed and degree of drug absorption into the blood circulation, which is an important indicator for evaluating the degree of drug absorption.

[2] = test system: human non-small cell lung cancer NCI-H1703 cell subcutaneous xenograft tumor; assay: In vivo pharmacodynamics, NCI-H1703 subcutaneous xenograft tumor model; design: species or system BALB/c nude mice; conditions: for Tumor volume (Day 0): Day 0 (baseline), Mean ± SEM; for Tumor volume (Day 21): Day 21, Mean ± SEM; for T/Cweight: day 21; for Tumor weight (PG-D21): day 21, Mean ± SEM
Description: Experimental purpose: To study the in vivo pharmacodynamics of the test compounds in BALB/c nude mice model with human non-small cell lung cancer NCI-H1703 cell subcutaneous xenograft tumor
Experimental animals: Female BALB/c nude mice, 6-8 weeks old, weighing 18-22 grams; supplier: Shanghai Sippe-Bk Lab Animal Co., Ltd.
Human non-small cell lung cancer NCI-H1703 cells were cultured in vitro in RPMI1640 medium with 10% fetal bovine serum, 100 U/mL penicillin and 100 μg/mL streptomycin at 37° C. in a 5% CO2 incubator. Conventional digestion with trypsin-EDTA was performed twice a week for passage. When the cell saturation was 80%-90% and the number reached the requirement, the cells were collected, counted, and seeded.
0.2 mL (5×10^6 cells) NCI-H1703 cells (added with matrigel, volume ratio of 1:1) were subcutaneously inoculated into the right back of each mouse, and the group administration started when the average tumor volume reached about 130 mm^3.
Compound 5 was prepared into 3 mg/mL, 6 mg/mL, 9 mg/mL suspension solutions, and compound 17 was prepared into 9 mg/mL suspensions, and the solvent was 0.5% HPMC+1% Tween 80.
Tumor diameters were measured with vernier calipers twice a week. The calculation formula of tumor volume is: V=0.5a×b^2, wherein a and b represent the long and short diameters of the tumor, respectively.
The antitumor efficacy of the compounds was evaluated by TGI (%) or relative tumor proliferation rate T/C (%). Relative tumor proliferation rate T/C (%)=TRTV/CRTV×100% (TRTV: means RTV in the treatment group; CRTV: means RTV in the negative control group). The relative tumor volume (RTV) was calculated according to the results of tumor measurement. The calculation formula is RTV=Vt/V0, wherein V0 is the tumor volume measured at the time of group administration (i.e., day 0), and Vt is the tumor volume at one measurement. Data of the same day was taken for TRTV and CRTV.
TGI (%), reflecting tumor growth inhibition rate. TGI (%)=[1−(average tumor volume at the end of administration of a certain treatment group-average tumor volume at the beginning of administration of this treatment group)/(average tumor volume at the end of treatment in the solvent control group-average volume at the beginning of treatment in the solvent control group tumor volume)]×100%. After the experiment, the tumor weight was detected, and the T/weight percentage was calculated. T weight and C weight represent the tumor weight of the administration group and the solvent control group, respectively.
Statistical analysis was performed using SPSS software based on RTV data at the end of the experiment. […] T-test was used to analyze the comparison between two groups, and one-way ANOVA was used to analyze the comparison between three or more groups. If the variance was homogeneous (F value had no significant difference), Tukey's method was used for analysis. If the variance was not homogeneous (F value had significant difference), the Games-Howell method was used to test. p<0.05 was considered a significant difference.

AUC(0-t) ([1]; IV 1 mg/kg): 1.66 µM·h
C0 ([1]; IV 1 mg/kg): 3600 nM
clearance ([1]; IV 1 mg/kg): 24.7 mL/min/kg
half-life ([1]; IV 1 mg/kg): 76.8 min
Vd ([1]; IV 1 mg/kg): 1.49 L/kg
AUC(0-t) ([1]; PO 5 mg/kg): 3.49 µM·h
Cmax ([1]; PO 5 mg/kg): 2170 nM
half-life ([1]; PO 5 mg/kg): 231 min
Tmax ([1]; PO 5 mg/kg): 15 min
Tlast ([1]; PO 5 mg/kg): 10 h
F ([1]; PO 5 mg/kg vs IV 1 mg/kg): 44.5%
Structure (SMILES): Cc1cc2ncnn2cc1Nc1ncc2c(n1)n(N1CC3CCC(C1)O3)c(=O)n2C [Compound 5]
Tumor volume (Day 0) ([2]; 30 mg/kg twice a day): 131 ± 10 mm^3
RTV (Day 21) ([2]; 30 mg/kg twice a day): 7.57 ± 0.53
T/C (%) (Day 21) ([2]; 30 mg/kg twice a day): 79.3%
TGI (%) (Day 21) ([2]; 30 mg/kg twice a day): 20.6%
Tumor volume (Day 21) ([2]; 30 mg/kg twice a day): 979 ± 86 mm^3
tumor inhibitory effect compared with the blank control (in words) ([2]; 30 mg/kg, administered twice a day): certain tumor inhibitory effect
T/Cweight ([2]; 30 mg/kg): 79.6%
Tumor weight (PG-D21) ([2]; 30 mg/kg): 1.031 ± 0.095 g
Tumor volume (Day 0) ([2]; 60 mg/kg twice a day): 131 ± 10 mm^3
RTV (Day 21) ([2]; 60 mg/kg twice a day): 3.31 ± 0.51
T/C (%) (Day 21) ([2]; 60 mg/kg twice a day): 34.7%
TGI (%) (Day 21) ([2]; 60 mg/kg twice a day): 72.3%
Tumor volume (Day 21) ([2]; 60 mg/kg twice a day): 427 ± 64 mm^3
T/Cweight ([2]; 60 mg/kg): 36.0%
Tumor weight (PG-D21) ([2]; 60 mg/kg): 0.467 ± 0.078 g
tumor inhibitory effect compared with the blank control (in words) ([2]; 60 mg/kg, dosed twice a day): significant tumor inhibitory effect
Tumor volume (Day 0) ([2]; 90 mg/kg twice a day): 130 ± 10 mm^3
RTV (Day 21) ([2]; 90 mg/kg twice a day): 2.64 ± 0.45
T/C (%) (Day 21) ([2]; 90 mg/kg twice a day): 27.7%
TGI (%) (Day 21) ([2]; 90 mg/kg twice a day): 79.4%
Tumor volume (Day 21) ([2]; 90 mg/kg twice a day): 351 ± 64 mm^3
T/Cweight ([2]; 90 mg/kg): 29.2%
Tumor weight (PG-D21) ([2]; 90 mg/kg): 0.379 ± 0.069 g
tumor inhibitory effect compared with the blank control (in words) ([2]; 90 mg/kg, dosed twice a day): significant tumor inhibitory effect
dose dependence of the therapeutic effect ([2]; 30, 60, 90 mg/kg twice a day): dose-dependent

AUC(0-t) ([1]; IV 0.4 mg/kg): 0.47 µM·h
C0 ([1]; IV 0.4 mg/kg): 748 nM
clearance ([1]; IV 0.4 mg/kg): 34.7 mL/min/kg
half-life ([1]; IV 0.4 mg/kg): 33.5 min
Vd ([1]; IV 0.4 mg/kg): 1.39 L/kg
AUC(0-t) ([1]; PO 2 mg/kg): 3.4 µM·h
Cmax ([1]; PO 2 mg/kg): 1540 nM
half-life ([1]; PO 2 mg/kg): 48.6 min
Tmax ([1]; PO 2 mg/kg): 60 min
Tlast ([1]; IV 0.4 mg/kg): 4 h
Tlast ([1]; PO 2 mg/kg): 8 h
F ([1]; PO 2 mg/kg vs IV 0.4 mg/kg): 144%
Structure (SMILES): Cc1cc2nncn2cc1Nc1ncc2c(n1)n(N1CC3CCC(C1)O3)c(=O)n2C [Compound 17]
Tumor volume (Day 0) ([2]; 90 mg/kg twice a day): 130 ± 13 mm^3
RTV (Day 21) ([2]; 90 mg/kg twice a day): 3.19 ± 0.46
T/C (%) (Day 21) ([2]; 90 mg/kg twice a day): 33.4%
TGI (%) (Day 21) ([2]; 90 mg/kg twice a day): 71.6%
Tumor volume (Day 21) ([2]; 90 mg/kg twice a day): 435 ± 94 mm^3
T/Cweight ([2]; 90 mg/kg): 35.9%
Tumor weight (PG-D21) ([2]; 90 mg/kg): 0.466 ± 0.103 g
tumor inhibitory effect compared with the blank control (in words) ([2]; 90 mg/kg, dosed twice a day): significant tumor inhibitory effect
